Experimental data from ChEMBL document CHEMBL4014306, “Pyrazolopyrimidines as Potent Stimulators for Transient Receptor Potential Canonical 3/6/7 Channels” (J Med Chem, 2017).
Active and inactive are the calls of the source. The rule behind the calls is not given here.

Key:
[1] = target: Transient receptor potential cation channel subfamily V member 1 (Homo sapiens) (UniProt Q8NER1); experiment: Agonist activity at human TRPV1 expressed in HEK293 cells assessed as increase in intracellular calcium level at 33 uM measured for 2.5 mins by Fluo-8-AM dye based fluorescence assay; format: cell-based
Chain of Transient receptor potential cation channel subfamily V member 1 (Homo sapiens) (Q8NER1 whole entry): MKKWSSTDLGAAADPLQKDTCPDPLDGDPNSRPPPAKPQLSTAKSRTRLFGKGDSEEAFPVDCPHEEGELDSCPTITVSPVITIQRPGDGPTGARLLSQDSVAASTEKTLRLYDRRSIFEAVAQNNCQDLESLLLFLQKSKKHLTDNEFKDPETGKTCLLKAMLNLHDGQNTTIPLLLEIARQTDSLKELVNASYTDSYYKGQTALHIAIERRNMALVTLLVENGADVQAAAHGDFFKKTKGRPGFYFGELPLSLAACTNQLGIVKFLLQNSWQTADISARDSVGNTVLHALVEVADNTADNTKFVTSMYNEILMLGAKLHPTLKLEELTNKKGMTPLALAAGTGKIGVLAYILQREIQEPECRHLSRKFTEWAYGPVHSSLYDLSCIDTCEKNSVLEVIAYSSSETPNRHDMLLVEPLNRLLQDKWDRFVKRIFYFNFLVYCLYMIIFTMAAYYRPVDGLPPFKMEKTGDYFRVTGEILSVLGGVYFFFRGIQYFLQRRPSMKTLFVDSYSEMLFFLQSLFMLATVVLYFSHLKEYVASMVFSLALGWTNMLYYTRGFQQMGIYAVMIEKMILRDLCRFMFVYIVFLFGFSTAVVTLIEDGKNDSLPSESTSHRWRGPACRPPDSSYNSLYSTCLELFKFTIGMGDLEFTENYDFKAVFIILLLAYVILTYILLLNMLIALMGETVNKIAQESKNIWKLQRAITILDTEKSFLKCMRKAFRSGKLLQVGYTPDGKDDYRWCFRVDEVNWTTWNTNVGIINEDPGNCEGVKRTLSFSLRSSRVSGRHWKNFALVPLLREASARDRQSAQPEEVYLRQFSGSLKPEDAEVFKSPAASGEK

[2] = target: T1, Short transient receptor potential channel 7 (Homo sapiens, UniProt Q9HCX4); experiment: Agonist activity at human TRPC7 expressed in HEK293 cells assessed as increase in intracellular calcium level measured for 2.5 mins in presence of 2 mM Ca2+ by Fluo8-AM dye-based fluorescence assay; format: cell-based
T1 sequence (Q9HCX4 whole entry): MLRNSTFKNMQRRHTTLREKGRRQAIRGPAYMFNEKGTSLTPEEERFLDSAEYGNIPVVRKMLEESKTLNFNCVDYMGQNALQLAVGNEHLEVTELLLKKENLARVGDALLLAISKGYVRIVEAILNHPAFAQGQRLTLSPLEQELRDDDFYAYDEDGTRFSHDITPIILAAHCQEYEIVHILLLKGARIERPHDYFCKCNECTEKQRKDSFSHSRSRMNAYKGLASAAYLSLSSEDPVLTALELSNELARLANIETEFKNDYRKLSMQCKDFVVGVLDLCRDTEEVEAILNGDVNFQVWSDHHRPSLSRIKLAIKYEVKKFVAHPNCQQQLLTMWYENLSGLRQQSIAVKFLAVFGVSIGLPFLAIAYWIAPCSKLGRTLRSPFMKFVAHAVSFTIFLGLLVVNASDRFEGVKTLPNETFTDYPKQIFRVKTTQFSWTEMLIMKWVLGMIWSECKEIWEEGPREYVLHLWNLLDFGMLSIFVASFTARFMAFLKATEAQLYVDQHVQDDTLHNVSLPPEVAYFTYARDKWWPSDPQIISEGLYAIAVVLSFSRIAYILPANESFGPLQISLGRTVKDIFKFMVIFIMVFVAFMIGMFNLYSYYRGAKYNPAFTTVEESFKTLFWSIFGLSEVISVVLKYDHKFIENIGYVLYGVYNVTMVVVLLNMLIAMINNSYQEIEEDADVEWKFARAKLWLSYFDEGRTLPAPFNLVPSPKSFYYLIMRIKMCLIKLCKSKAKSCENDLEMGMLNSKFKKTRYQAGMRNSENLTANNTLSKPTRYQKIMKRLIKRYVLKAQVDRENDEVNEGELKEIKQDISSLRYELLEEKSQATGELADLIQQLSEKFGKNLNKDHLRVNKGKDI

[3] = target: T2, Transient receptor potential cation channel subfamily V member 3 (Mus musculus) (UniProt Q8K424); experiment: Agonist activity at mouse TRPV3 expressed in HEK293 cells assessed as increase in intracellular calcium level at 33 uM measured for 2.5 mins by Fluo-8-AM dye based fluorescence assay; format: cell-based
T2 sequence (whole entry): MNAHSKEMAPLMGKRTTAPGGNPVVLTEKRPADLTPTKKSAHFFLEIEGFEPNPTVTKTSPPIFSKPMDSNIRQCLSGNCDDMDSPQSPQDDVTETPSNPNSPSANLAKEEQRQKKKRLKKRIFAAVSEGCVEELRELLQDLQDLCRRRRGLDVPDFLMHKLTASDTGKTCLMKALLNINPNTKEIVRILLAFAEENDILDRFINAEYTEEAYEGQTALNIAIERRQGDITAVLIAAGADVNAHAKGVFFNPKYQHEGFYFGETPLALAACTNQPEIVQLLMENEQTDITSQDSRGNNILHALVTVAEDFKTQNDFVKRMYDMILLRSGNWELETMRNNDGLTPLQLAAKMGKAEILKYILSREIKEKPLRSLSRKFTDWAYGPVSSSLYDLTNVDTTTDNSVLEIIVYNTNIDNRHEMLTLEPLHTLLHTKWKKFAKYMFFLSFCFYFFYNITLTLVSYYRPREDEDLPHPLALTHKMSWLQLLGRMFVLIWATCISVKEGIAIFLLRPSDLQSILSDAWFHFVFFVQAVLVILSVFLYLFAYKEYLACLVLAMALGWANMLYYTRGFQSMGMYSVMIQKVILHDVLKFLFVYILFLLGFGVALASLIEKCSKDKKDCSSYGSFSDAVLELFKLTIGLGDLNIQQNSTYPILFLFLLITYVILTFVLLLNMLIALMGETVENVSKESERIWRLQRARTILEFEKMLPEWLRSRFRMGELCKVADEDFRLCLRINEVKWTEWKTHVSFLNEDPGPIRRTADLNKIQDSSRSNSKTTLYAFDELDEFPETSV

[4] = target: T3, Short transient receptor potential channel 4 (Mus musculus) (UniProt Q9QUQ5); experiment: Agonist activity at mouse TRPC4beta expressed in HEK293 cells co-expressing MOR assessed as increase in intracellular calcium level at 33 uM measured for 2.5 mins by Fluo-8-AM dye-based fluorescence assay; format: cell-based
T3 sequence (whole entry): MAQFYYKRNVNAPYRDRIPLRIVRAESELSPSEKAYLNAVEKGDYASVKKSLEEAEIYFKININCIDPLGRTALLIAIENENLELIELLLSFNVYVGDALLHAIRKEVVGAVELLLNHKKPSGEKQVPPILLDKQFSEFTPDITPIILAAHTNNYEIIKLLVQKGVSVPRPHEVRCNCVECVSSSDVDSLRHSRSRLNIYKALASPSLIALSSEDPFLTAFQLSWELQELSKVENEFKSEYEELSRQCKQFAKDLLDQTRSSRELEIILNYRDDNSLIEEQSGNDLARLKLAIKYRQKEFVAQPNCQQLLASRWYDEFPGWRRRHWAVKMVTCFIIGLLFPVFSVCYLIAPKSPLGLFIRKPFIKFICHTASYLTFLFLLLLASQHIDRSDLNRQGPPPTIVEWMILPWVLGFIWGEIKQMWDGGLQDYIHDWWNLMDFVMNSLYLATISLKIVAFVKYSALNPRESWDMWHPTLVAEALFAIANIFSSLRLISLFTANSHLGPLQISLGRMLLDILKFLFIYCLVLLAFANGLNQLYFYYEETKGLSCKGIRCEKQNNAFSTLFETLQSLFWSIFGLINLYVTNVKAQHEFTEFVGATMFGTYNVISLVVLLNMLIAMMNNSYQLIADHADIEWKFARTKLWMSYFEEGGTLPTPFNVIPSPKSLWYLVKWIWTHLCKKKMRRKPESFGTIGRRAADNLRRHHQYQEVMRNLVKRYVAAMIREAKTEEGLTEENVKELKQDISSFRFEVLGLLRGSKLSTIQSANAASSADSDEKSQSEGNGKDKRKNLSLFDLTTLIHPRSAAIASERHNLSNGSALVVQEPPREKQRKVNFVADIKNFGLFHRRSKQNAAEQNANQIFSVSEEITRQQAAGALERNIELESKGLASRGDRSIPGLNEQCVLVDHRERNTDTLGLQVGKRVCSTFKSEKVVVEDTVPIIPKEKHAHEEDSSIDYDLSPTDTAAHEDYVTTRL

[5] = target: Transient receptor potential cation channel subfamily M member 8 (Mus musculus) (UniProt Q8R4D5); experiment: Inhibition of mouse TRPM8 expressed in HEK293 cells assessed as decrease in menthol-evoked increase in intracellular calcium level at 22 uM preincubated for 2 mins followed by menthol addition measured for 2.5 mins by Fluo8-AM dye-based fluorescence assay relative to control
Chain of Transient receptor potential cation channel subfamily M member 8 (Mus musculus) (Q8R4D5 whole entry): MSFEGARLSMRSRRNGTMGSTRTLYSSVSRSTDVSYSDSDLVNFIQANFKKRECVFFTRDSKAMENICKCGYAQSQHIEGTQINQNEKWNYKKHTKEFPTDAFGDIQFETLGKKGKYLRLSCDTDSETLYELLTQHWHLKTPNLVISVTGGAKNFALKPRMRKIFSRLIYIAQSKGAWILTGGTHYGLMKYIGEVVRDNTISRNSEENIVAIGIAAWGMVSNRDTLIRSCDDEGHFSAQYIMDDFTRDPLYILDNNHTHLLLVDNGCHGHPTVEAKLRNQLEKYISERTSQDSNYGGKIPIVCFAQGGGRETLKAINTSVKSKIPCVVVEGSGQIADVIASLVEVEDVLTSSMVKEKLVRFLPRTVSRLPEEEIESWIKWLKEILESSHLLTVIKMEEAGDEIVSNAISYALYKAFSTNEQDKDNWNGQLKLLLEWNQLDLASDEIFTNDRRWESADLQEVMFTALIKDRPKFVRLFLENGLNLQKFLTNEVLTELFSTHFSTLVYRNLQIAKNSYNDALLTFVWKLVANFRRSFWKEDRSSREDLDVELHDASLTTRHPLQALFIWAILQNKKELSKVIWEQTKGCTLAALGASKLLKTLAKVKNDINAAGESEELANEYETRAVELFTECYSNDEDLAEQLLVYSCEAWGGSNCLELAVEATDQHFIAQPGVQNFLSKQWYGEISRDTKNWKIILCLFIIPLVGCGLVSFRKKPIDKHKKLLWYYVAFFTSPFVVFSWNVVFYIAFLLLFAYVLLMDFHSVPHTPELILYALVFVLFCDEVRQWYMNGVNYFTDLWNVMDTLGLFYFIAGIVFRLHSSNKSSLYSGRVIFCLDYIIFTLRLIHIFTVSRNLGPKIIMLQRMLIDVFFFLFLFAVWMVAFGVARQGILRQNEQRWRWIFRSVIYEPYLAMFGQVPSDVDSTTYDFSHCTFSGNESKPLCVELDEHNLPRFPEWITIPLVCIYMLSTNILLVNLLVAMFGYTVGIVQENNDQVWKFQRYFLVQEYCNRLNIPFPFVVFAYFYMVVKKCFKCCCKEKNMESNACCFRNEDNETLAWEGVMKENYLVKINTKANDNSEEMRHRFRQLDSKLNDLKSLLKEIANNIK

Activity [1] | EC50 [2] | Activity [3] | Activity [4] | inhibition [5] | SMILES
inactive | 213 nM | inactive | inactive | – | Cc1nn2c(O)cc(C3CCN(C(=O)OCc4ccccc4)CC3)nc2c1-c1ccc(Cl)cc1
inactive | 90 nM | inactive | inactive | 17% | CCOC(=O)N1CCC(c2cc(O)n3nc(C)c(-c4ccc(C(F)(F)F)cc4)c3n2)CC1
inactive | 314 nM | inactive | inactive | 35% | Cc1nn2c(O)cc(C3CCN(C(=O)OCc4ccccc4)CC3)nc2c1-c1ccc(F)cc1

SMILES | Activity [1] | EC50 [2] | Activity [3] | Activity [4] | inhibition [5]
CCOC(=O)N1CCC(c2cc(O)n3nc(C)c(-c4ccc(F)cc4)c3n2)CC1 | inactive | 497 nM | inactive | inactive | 22%
